Laboratory results as given in patent US20240270821A1, “GIP/GLP1/GCG TRI-RECEPTOR AGONISTS AND USES THEREOF” (priority 2023, published 2024).
Starred links: 1 amine or outer side, 2 acyl side, 3 side chain; linkers in the order of their positions; H or OH if unused. Non-standard residues stand in square brackets, D forms with d. Groups on a side chain read outwards from the residue. *: point of attachment. C20 diacid = O=C(O)CCCCCCCCCCCCCCCCCCC(=O)*; γGlu = O=C(O)[C@H](CCC(=O)[*:2])N[*:1]; αMeL = CC(C)C[C@](C)(N)C(=O)O; AEEA = NCCOCCOCC(=O)O; Aib = CC(C)(N)C(=O)O

Assays:
Type in all cases: cell-based
hGIPR [1] = target: T1, hGIPR (Homo sapiens, UniProt P48546); test: Functional cAMP activity in the presence of 1% HSA; settings: read-out: cAMP Rel EC50, hGIPR
T1 sequence (P48546 22-466): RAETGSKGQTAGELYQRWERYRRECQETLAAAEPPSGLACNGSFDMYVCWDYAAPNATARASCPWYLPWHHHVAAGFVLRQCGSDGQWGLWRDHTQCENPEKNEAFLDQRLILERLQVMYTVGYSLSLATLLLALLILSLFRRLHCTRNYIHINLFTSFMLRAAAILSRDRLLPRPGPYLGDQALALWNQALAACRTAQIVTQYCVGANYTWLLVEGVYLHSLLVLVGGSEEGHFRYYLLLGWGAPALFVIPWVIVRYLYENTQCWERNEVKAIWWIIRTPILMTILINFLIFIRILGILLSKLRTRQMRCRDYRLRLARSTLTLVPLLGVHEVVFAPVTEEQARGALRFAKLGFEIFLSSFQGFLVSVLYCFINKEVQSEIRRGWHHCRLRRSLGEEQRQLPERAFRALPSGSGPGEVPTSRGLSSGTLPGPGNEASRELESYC

hGLP-1R [2] = target: T2, hGLP-1R (Homo sapiens, UniProt P43220); test: Functional cAMP activity in the presence of 1% HSA; settings: read-out: cAMP Rel EC50, hGLP-1R
human GcgR = human GcgR (Homo sapiens, UniProt P47871); test: Functional cAMP activity in the presence of 1% HSA; settings: read-out: cAMP Rel EC50, hGcgR
hGIPR [3] = target: T1, hGIPR; test: Functional cAMP activation in the presence of 0.1% casein (no HSA); settings: in the presence of 0.1% casein (no HSA); geometric mean; read-out: Relative cAMP EC50, hGIPR;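 as to Relative cAMP EC50, hGIPR: intracellular cAMP rise after 30 min at 37 °C read by HTRF against a standard curve, scaled between buffer alone (0%) and top control ligand concentration (100%), four-parameter fit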;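 as to Relative cAMP EC50, hGLP-1R: intracellular cAMP rise after 30 min at 37 °C read by HTRF, normalized between buffer only (0%) and maximal control ligand (100%), four-parameter variable-slope fit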;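 as to Relative cAMP EC50, hGcgR: intracellular cAMP rise after 30 min at 37 °C, read by HTRF against a cAMP standard curve, scaled from buffer only (0%) to maximal control ligand response (100%)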
hGLP-1R [4] = target: T2, hGLP-1R; test: as above; settings: in the presence of 0.1% casein (no HSA); geometric mean; read-out: Relative cAMP EC50, hGLP-1R
hGcgR = hGcgR (Homo sapiens, UniProt P47871); test: as above; settings: in the presence of 0.1% casein (no HSA); geometric mean; read-out: Relative cAMP EC50, hGcgR;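 also: intracellular cAMP rise after 30 min at 37 °C, read by HTRF against a cAMP standard curve, scaled from buffer only (0%) to maximal control ligand response (100%)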
human GLP1-R = human GLP1-R (Homo sapiens, UniProt P43220); test: GLP1-R internalization assay in HEK293 cells; settings: for EC50: HEK293 cells expressing SNAP-GLP-1R, read-out: GLP1R Internalization EC50; for Internalization % TOP: normalized to maximum concentration of GLP-1 (100%)
Chain of human GLP1-R (P43220 24-463): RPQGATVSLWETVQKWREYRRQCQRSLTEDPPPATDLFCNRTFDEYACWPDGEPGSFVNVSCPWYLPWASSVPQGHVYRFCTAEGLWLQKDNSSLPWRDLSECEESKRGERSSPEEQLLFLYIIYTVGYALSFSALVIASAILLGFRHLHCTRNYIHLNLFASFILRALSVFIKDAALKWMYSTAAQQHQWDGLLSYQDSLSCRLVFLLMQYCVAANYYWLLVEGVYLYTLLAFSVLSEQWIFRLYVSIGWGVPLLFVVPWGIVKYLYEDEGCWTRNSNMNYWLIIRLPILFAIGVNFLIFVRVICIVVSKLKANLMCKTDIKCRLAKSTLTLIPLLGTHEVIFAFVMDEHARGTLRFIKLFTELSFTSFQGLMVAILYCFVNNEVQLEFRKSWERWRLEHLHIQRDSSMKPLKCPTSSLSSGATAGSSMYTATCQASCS

Chain of human GcgR (P47871 26-477): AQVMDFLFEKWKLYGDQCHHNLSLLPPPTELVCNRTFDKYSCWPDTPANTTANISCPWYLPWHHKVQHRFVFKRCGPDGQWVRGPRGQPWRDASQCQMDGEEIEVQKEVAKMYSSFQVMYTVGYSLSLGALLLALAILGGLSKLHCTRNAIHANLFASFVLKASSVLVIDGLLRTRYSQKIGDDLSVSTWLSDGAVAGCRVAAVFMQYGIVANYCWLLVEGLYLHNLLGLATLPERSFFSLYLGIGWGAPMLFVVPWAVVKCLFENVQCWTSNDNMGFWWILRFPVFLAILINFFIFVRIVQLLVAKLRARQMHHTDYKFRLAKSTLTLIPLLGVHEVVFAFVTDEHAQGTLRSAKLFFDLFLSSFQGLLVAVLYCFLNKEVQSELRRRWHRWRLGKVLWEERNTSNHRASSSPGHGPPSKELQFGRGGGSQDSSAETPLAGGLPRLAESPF
Chain of hGcgR (P47871 26-477): as above
T2 sequence (P43220 24-463): as the sequence (P43220 24-463) above

Substance	EC50 (hGIPR [1]) [nM]	EC50 (hGLP-1R [2]) [nM]	EC50 (human GcgR) [nM]	EC50 (hGIPR [3]) [nM]	EC50 (hGLP-1R [4]) [nM]	EC50 (hGcgR) [nM]	EC50 (human GLP1-R) [nM]	Internalization % TOP (human GLP1-R) [%]
H-Y[Aib]QGTFTSDFSK[αMeL]LDKK([AEEA-γGlu-C20 diacid])AQ[Aib]AFIEYLLAGGPSSGAPPPGGE-NH2 [Example 15]	36.3	276	1980	0.201	1.77	11.1	79	74.9
H-Y[Aib]QGTFTSDFSK[αMeL]LDKK([AEEA-γGlu-C20 diacid])AQ[Aib]AFIEYLLAGGPSSGAPPPGGS-NH2 [Example 16]	35.9	281	1660	0.217	1.54	8.84	37.8	74.6
H-Y[Aib]QGTFTSDFSK[αMeL]LDKK([AEEA-γGlu-C20 diacid])AQ[Aib]AFIEYLLAGGPSSGAPPPSEG-NH2 [Example 10]	43	375	1640	0.226	1.85	7.62	79.2	71.9
H-Y[Aib]QGTFTSDFSK[αMeL]LDKK([AEEA-γGlu-C20 diacid])AQ[Aib]AFIEYLLAGGPSSGAPPPSGE-NH2 [Example 11]	40.8	337	1700	0.233	2.07	12.5	75.1	73.8
H-Y[Aib]QGTFTSDFSK[αMeL]LDKK([AEEA-γGlu-C20 diacid])AQ[Aib]AFIEYLLAGGPSSGAPPPSGG-NH2 [Example 12]	30.2	216	1490	0.17	1.46	12.2	48.5	75.3
H-Y[Aib]QGTFTSDFSK[αMeL]LDKK([AEEA-γGlu-C20 diacid])AQ[Aib]AFIEYLLAGGPSSGEPPPGEG-NH2 [Example 31]	63.6	737	1750	0.249	2.16	8.42	91.9	67.4
H-Y[Aib]QGTFTSDFSK[αMeL]LDKK([AEEA-γGlu-C20 diacid])AQ[Aib]AFIEYLLAGGPSSGEPPPSEG[AEEA]-NH2 [Example 32]	66.1	422	1440	0.28	2.55	11.6	86.1	64.4
H-Y[Aib]QGTFTSDFSK[αMeL]LDKK([AEEA-γGlu-C20 diacid])AQ[Aib]AFIEYLLAGGPSSGEPPPSGE[AEEA]-NH2 [Example 33]	70.7	436	1310	0.285	1.71	7.04	106	64.6
H-Y[Aib]QGTFTSDFSK[αMeL]LDKK([AEEA-γGlu-C20 diacid])AQ[Aib]AFIEYLLAGGPSSGEPPPSGS-NH2 [Example 8]	39.4	603	1560	0.231	2.11	6.65	63.2	74
H-Y[Aib]QGTFTSDFSK[αMeL]LDKK([AEEA-γGlu-C20 diacid])AQ[Aib]AFIEYLLAGGPSSGEPPPSSG-NH2 [Example 7]	50.6	494	1210	0.203	2.11	5.05	52.6	76.3
H-Y[Aib]QGTFTSDFSK[αMeL]LDKK([AEEA-γGlu-C20 diacid])AQ[Aib]AFIEYLLEGGPSSGAPPPGGS-NH2 [Example 18]	59.6	561	1210	0.337	2.31	2.7	91.8	74.1
